According to patent publication US12187723B2 (BRISTOL-MYERS SQUIBB COMPANY, priority 2019, dated 2025):

Tests used:
human TLR7 = target: T1, human TLR7 (Homo sapiens, UniProt Q9NYK1); experiment: TLR7 inhibition reporter assay (HEK-Blue SEAP); type: cell-based; settings: HEK-Blue cells overexpressing human TLR7, gardiquimod 7.5 μM, 22 hour incubation
T1 construct: host or cells: HEK-Blue cells
T1 sequence (Q9NYK1 27-1049): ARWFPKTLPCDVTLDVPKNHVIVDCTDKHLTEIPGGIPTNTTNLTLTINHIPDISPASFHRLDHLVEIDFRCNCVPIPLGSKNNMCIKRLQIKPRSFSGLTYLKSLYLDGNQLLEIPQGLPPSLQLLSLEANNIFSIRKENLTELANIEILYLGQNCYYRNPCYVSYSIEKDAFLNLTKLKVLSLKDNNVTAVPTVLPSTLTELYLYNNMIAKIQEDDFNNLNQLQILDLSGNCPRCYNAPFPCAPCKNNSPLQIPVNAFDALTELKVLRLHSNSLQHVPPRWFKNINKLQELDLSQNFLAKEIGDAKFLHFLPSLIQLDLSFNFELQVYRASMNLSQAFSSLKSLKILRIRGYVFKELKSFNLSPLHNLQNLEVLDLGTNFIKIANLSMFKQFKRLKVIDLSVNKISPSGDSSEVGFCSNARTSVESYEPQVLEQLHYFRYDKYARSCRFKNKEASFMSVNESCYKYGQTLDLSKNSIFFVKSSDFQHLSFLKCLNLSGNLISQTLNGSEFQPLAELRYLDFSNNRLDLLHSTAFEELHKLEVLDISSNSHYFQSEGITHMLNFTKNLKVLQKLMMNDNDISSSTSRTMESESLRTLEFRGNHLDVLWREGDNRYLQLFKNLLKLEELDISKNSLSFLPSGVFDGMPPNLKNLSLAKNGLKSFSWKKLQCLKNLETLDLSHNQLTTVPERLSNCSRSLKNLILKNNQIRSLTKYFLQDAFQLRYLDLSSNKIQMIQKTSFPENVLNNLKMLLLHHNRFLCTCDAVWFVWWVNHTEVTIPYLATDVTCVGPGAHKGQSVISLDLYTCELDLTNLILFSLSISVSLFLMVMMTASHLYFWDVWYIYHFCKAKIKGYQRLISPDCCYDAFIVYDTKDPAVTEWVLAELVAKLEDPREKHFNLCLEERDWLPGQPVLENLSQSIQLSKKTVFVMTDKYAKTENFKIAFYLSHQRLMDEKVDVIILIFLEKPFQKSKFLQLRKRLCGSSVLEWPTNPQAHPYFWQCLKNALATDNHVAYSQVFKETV
In short: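 HEK-Blue reporter cells (15,000/well TLR7, 20,000 TLR8) exposed to compound over 0.05 nM–50 μM, agonist-stimulated (R848 for TLR8, gardiquimod for TLR7), 22 h at 37 °C, 5% CO2. SEAP read with HEK-Blue Detection; % inhibition relative to agonist-plus-DMSO and known-inhibitor controls.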

human TLR8 = target: T2, human TLR8 (Homo sapiens, UniProt Q9NR97); experiment: TLR8 inhibition reporter assay (HEK-Blue SEAP); type: cell-based; settings: HEK-Blue cells overexpressing human TLR8, R848 15.9 μM, 22 hour incubation
T2 construct: host or cells: HEK-Blue cells
T2 sequence (Q9NR97 27-1041): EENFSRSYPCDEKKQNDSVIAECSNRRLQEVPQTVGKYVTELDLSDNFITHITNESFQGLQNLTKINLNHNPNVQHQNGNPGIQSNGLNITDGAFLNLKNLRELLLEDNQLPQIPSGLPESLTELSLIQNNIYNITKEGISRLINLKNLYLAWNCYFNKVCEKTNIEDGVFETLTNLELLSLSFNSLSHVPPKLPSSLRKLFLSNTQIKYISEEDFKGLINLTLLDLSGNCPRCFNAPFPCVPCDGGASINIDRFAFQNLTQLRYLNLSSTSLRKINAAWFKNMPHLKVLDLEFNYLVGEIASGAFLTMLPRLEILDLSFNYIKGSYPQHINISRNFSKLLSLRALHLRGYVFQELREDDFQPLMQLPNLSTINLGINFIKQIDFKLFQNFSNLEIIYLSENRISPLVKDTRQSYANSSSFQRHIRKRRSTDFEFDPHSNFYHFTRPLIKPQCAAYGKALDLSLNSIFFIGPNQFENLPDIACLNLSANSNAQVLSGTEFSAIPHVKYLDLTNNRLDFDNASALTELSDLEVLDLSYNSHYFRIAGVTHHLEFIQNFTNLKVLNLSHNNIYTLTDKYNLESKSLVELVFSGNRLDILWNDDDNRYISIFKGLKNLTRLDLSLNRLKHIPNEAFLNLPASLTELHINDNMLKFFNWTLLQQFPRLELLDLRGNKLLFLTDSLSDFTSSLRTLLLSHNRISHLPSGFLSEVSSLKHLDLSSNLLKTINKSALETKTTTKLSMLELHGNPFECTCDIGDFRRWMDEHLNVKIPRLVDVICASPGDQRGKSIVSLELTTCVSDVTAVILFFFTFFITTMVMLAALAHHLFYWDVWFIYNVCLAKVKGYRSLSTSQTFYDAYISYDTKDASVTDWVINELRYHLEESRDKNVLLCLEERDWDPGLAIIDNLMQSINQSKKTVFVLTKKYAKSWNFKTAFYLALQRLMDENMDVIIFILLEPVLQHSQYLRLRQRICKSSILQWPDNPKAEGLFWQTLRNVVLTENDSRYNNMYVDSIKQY
In short: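 Agonists used: gardiquimod 7.5 μM (TLR7), R848 15.9 μM (TLR8), ODN2006 5 nM (TLR9), added after 30 min room-temperature compound pre-treatment (0.05 nM–50 μM) of receptor-overexpressing HEK-Blue cells. SEAP reporter (NF-κB/AP-1 driven) read after 22 h at 37 °C; inhibition scaled between agonist+DMSO and reference-inhibitor wells.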

Structure (SMILES)	IC50 (human TLR7)	IC50 (human TLR8)
CCc1cc2c(cc1-c1cc(OC)c3ncnn3c1)[nH]c(=O)n2[C@@H]1CCCN(CCC(F)(F)F)C1 [Example 183, (R)-6-ethyl-5-(8-methoxy-[1,2,4]triazolo[1,5-a]pyridin-6-yl)-1-(1-(3,3,3-trifluoropropyl)piperidin-3-yl)-1,3-dihydro-2H-benzo[d]imidazol-2-one]	12.2 nM	6.44 nM
CCc1cc2c(cc1-c1cc(OC)c3ncnn3c1)[nH]c(=O)n2[C@@H]1CCCN(C2CCOCC2)C1 [Example 184, (R)-6-ethyl-5-(8-methoxy-[1,2,4]triazolo[1,5-a]pyridin-6-yl)-1-(1-(tetrahydro-2H-pyran-4-yl)piperidin-3-yl)-1,3-dihydro-2H-benzo[d]imidazol-2-one]	12.1 nM	14.3 nM
Cc1c(-c2cc3[nH]c(=O)n([C@H]4CC[C@@H](N(C)C)CC4)c3cc2C(C)C)cn2ncnc2c1C [Example 185, 5-(7,8-dimethyl-[1,2,4]triazolo[1,5-a]pyridin-6-yl)-1-((1s,4s)-4-(dimethylamino)cyclohexyl)-6-isopropyl-1,3-dihydro-2H-benzo[d]imidazol-2-one]	3.39 nM	0.36 nM
Cc1c(-c2cc3[nH]c(=O)n([C@H]4CC[C@@H](NC5CCOCC5)CC4)c3cc2C(C)C)cn2ncnc2c1C [Example 187, 5-(7,8-dimethyl-[1,2,4]triazolo[1,5-a]pyridin-6-yl)-6-isopropyl-1-((1s,4s)-4-((tetrahydro-2H-pyran-4-yl)amino)cyclohexyl)-1,3-dihydro-2H-benzo[d]imidazol-2-one]	4.09 nM	0.8 nM
Cc1c(-c2cc3[nH]c(=O)n([C@H]4CC[C@@H](NC5COC5)CC4)c3cc2C(C)C)cn2ncnc2c1C [Example 188, 5-(7,8-dimethyl-[1,2,4]triazolo[1,5-a]pyridin-6-yl)-6-isopropyl-1-((1s,4s)-4-(oxetan-3-ylamino)cyclohexyl)-1,3-dihydro-2H-benzo[d]imidazol-2-one]	7.14 nM	0.95 nM
CCN[C@H]1CC[C@@H](n2c(=O)[nH]c3cc(-c4cn5ncnc5c(C)c4C)c(C(C)C)cc32)CC1 [Example 189, 5-(7,8-dimethyl-[1,2,4]triazolo[1,5-a]pyridin-6-yl)-1-((1s,4s)-4-(ethylamino)cyclohexyl)-6-isopropyl-1,3-dihydro-2H-benzo[d]imidazol-2-one]	9.82 nM	3.11 nM
Cc1c(-c2cc3[nH]c(=O)n([C@H]4CC[C@@H](NCC(C)(C)C)CC4)c3cc2C(C)C)cn2ncnc2c1C [Example 190, 5-(7,8-dimethyl-[1,2,4]triazolo[1,5-a]pyridin-6-yl)-6-isopropyl-1-((1s,4s)-4-(neopentylamino)cyclohexyl)-1,3-dihydro-2H-benzo[d]imidazol-2-one]	5.72 nM	0.08 nM
CCC(CC)CN[C@H]1CC[C@@H](n2c(=O)[nH]c3cc(-c4cc(OC)c5ncnn5c4)c(C(C)C)cc32)CC1 [Example 194]	2.28 nM	0.11 nM
COc1cc(-c2cc3[nH]c(=O)n([C@H]4CC[C@@H](NCC5CCOCC5)CC4)c3cc2C(C)C)cn2ncnc12 [Example 196, 6-isopropyl-5-(8-methoxy-[1,2,4]triazolo[1,5-a]pyridin-6-yl)-1-((1s,4s)-4-(((tetrahydro-2H-pyran-4-yl)methyl)amino)cyclohexyl)-1,3-dihydro-2H-benzo[d]imidazol-2-one]	4.1 nM	0.05 nM

Second part, the compound after the results:

IC50 (human TLR7)	IC50 (human TLR8)	Structure (SMILES)
1.42 nM	4.29 nM	CCc1cc2c(cc1-c1cc(OC)c3ncnn3c1)[nH]c(=O)n2[C@@H]1CCCN(CC(C)(C)C)C1 [Example 180, (R)-6-ethyl-5-(8-methoxy-[1,2,4]triazolo[1,5-a]pyridin-6-yl)-1-(1-neopentylpiperidin-3-yl)-1,3-dihydro-2H-benzo[d]imidazol-2-one]
0.81 nM	1.68 nM	CCc1cc2c(cc1-c1cc(OC)c3ncnn3c1)[nH]c(=O)n2[C@@H]1CCCN(CC2CCC2)C1 [Example 181, (R)-1-(1-(cyclobutylmethyl)piperidin-3-yl)-6-ethyl-5-(8-methoxy-[1,2,4]triazolo[1,5-a]pyridin-6-yl)-1,3-dihydro-2H-benzo[d]imidazol-2-one]
1.93 nM	2.31 nM	CCc1cc2c(cc1-c1cc(OC)c3ncnn3c1)[nH]c(=O)n2[C@@H]1CCCN(CC2CC2)C1 [Example 182, (R)-1-(1-(cyclopropylmethyl)piperidin-3-yl)-6-ethyl-5-(8-methoxy-[1,2,4]triazolo[1,5-a]pyridin-6-yl)-1,3-dihydro-2H-benzo[d]imidazol-2-one]
0.95 nM	0.13 nM	Cc1c(-c2cc3[nH]c(=O)n([C@H]4CC[C@@H](NC(C)C)CC4)c3cc2C(C)C)cn2ncnc2c1C [Example 186, 5-(7,8-dimethyl-[1,2,4]triazolo[1,5-a]pyridin-6-yl)-6-isopropyl-1-((1s,4s)-4-(isopropylamino)cyclohexyl)-1,3-dihydro-2H-benzo[d]imidazol-2-one]
1.49 nM	0.58 nM	COc1cc(-c2cc3[nH]c(=O)n([C@H]4CC[C@@H](N(C)C)CC4)c3cc2C(C)C)cn2ncnc12 [Example 191, 1-((1s,4s)-4-(dimethylamino)cyclohexyl)-6-isopropyl-5-(8-methoxy-[1,2,4]triazolo[1,5-a]pyridin-6-yl)-1,3-dihydro-2H-benzo[d]imidazol-2-one]
1.97 nM	0.44 nM	COc1cc(-c2cc3[nH]c(=O)n([C@H]4CC[C@@H](NC(C)C)CC4)c3cc2C(C)C)cn2ncnc12 [Example 192, 6-isopropyl-1-((1s,4s)-4-(isopropylamino)cyclohexyl)-5-(8-methoxy-[1,2,4]triazolo[1,5-a]pyridin-6-yl)-1,3-dihydro-2H-benzo[d]imidazol-2-one]
2.22 nM	0.48 nM	COc1cc(-c2cc3[nH]c(=O)n([C@H]4CC[C@@H](NC5CCOCC5)CC4)c3cc2C(C)C)cn2ncnc12 [Example 193, 6-isopropyl-5-(8-methoxy-[1,2,4]triazolo[1,5-a]pyridin-6-yl)-1-((1s,4s)-4-((tetrahydro-2H-pyran-4-yl)amino)cyclohexyl)-1,3-dihydro-2H-benzo[d]imidazol-2-one]
1.39 nM	0.27 nM	CCCN[C@H]1CC[C@@H](n2c(=O)[nH]c3cc(-c4cc(OC)c5ncnn5c4)c(C(C)C)cc32)CC1 [Example 195, 6-isopropyl-5-(8-methoxy-[1,2,4]triazolo[1,5-a]pyridin-6-yl)-1-((1 s,4s)-4-(propylamino)cyclohexyl)-1,3-dihydro-2H-benzo[d]imidazol-2-one]
